For orientation: IC50 means the concentration at which inhibition is half-maximal. A higher IC50 goes with lower potency.

The values below come from patent US7115599B2, “Sulfonamide-substituted pyrazolopyridine compounds” (Bayer Aktiengesellschaft, priority 2000, dated 2006).

The experiment deals with rabbit aorta rings. The experiment can be described thus: Vasorelaxant effect in vitro (phenylephrine-contracted rabbit aortic rings). The conditions noted are these: Oryctolagus cuniculus; concentration reducing height of phenylephrine-induced contraction of rabbit aorta rings by 50%; 0.1% DMSO, 37° C. On the procedure:
Rabbits are stunned by a blow to the back of the neck and are exsanguinated. The aorta is removed, freed of adherent tissue, divided into rings 1.5 mm wide and put singly under tension in 5 ml organ baths containing carbogen-gassed Krebs-Henseleit solution at 37° C. with the following composition (mM): NaCl: 119; KCl: 4.8; CaCl2×2H2O: 1; MgSO4×7H2O: 1.4; KH2PO4: 1.2; NaHCO3: 25; glucose: 10. The force of contraction is detected with Statham UC2 cells, amplified and digitized via A/D converters (DAS-1802 HC, Keithley Instruments Munich) and recorded in parallel on chart recorders. A contraction is generated by adding phenylephrine to the bath cumulatively in increasing concentration. After several control cycles, the substance to be investigated is investigated in each further run in increasing dosage in each case, and the height of the contraction is compared with the height of the contraction reached in the last preceding run. The concentration necessary to reduce the height of the control value by 50% (IC50) is calculated from this. The standard application volume is 5 μl, and the DMSO content in the bath solution corresponds to 0.1%.

Structures are written as SMILES.

`Nc1nc(-c2nn(Cc3ccccc3F)c3ncccc23)nc(Cl)c1N1CCCS1(=O)=O` [Example 1, 6-Chloro-5-(1,1-dioxido-2-isothiazolidinyl)-2-[1-(2-fluorobenzyl)-1H-pyrazolo[3,4-b]pyridin-3-yl]-4-pyrimidinediamine]: the IC50 turned out to be 290 nM.

For the molecule `Nc1nc(-c2nn(Cc3ccccc3F)c3ncccc23)nc(N)c1N1CCCS1(=O)=O` [Example 3, 5-(1,1-Dioxido-2-isothiazolidinyl)-2-[1-(2-fluorobenzyl)-1H-pyrazolo[3,4-b]pyridin-3-yl]-4,6-pyrimidineamine], it took 350 nM to reach half-maximal inhibition (IC50).
